The results in this text go back to patent EP4667483A1, “HUMAN TRANSFERRIN RECEPTOR-BINDING PEPTIDE” (JCR Pharmaceuticals Co., Ltd., priority 2023, dated 2024).

Numbered stars: 1 amine (or outer) side, 2 acyl side, 3 side chain; on linkers, the order of the positions; unused ones are H or OH. Bridge positions count the residues as written; N and C are the ends. Square brackets hold non-standard residues; d marks the D form. Side chains are listed from the residue outwards. Peptide text beside a SMILES is read from it. * marks the point of attachment. Trp(1-CH2COOH) = N[C@@H](Cc1cn(CC(=O)O)c2ccccc12)C(=O)O; CH2CON(CH2CH2)2NCH2COOH = O=C(O)CN1CCN(C(=O)C*)CC1; NMePhe(4-COOH) = CN[C@@H](Cc1ccc(C(=O)O)cc1)C(=O)O; X1 = O=C([C@H](Cc1cccc(C(=O)[*:3])c1)N[*:1])[*:2]; Nle(6-morpholino) = N[C@@H](CCCCN1CCOCC1)C(=O)O; Phe(3-COOH) = N[C@@H](Cc1cccc(C(=O)O)c1)C(=O)O; Trp(7-aza) = N[C@@H](Cc1c[nH]c2ncccc12)C(=O)O; NH(CH2CH2O)8Me = COCCOCCOCCOCCOCCOCCOCCOCCN*; NMePhe(3-Cl) = CN[C@@H](Cc1cccc(Cl)c1)C(=O)O; Piperazinyl(4-CH2COOH) = O=C(O)CN1CCN(*)CC1; 3Pal(6-NH2) = Nc1ccc(C[C@H](N)C(=O)O)cn1; NMeY = CN[C@@H](Cc1ccc(O)cc1)C(=O)O; Nva(3-Et) = CCC(CC)[C@H](N)C(=O)O; 4Pal = N[C@@H](Cc1ccncc1)C(=O)O; PEG4 = NCCOCCOCCOCCOCCC(=O)O; Carboxymethyl = O=C(O)C*; CO = O=C([*:1])[*:2]

Assay [1] addresses T1, human transferrin receptor (hTfR) (Homo sapiens, UniProt P02786). Kind of assay: SPR measurement under pH 7.4 conditions (Biacore T200, CM3 chip, hTfR captured by His Tag antibody). The format is binding. The note with it: pH 7.4, single-cycle kinetics; read-out: hTfR SPR pH7.4 KD. (In general: Surface plasmon resonance follows binding to a sensor surface in real time, without labels.)

Assay [2] concerns the target T1, human transferrin receptor (hTfR). Kind of assay: SPR measurement under pH 6.0 conditions (Biacore T200, NTA chip, immobilized hTfR). Format: binding. The settings on record: pH 6.0, single-cycle kinetics; read-out: hTfR SPR pH6.0 KD.

A word on the Kd: it is the equilibrium constant for the complex coming apart.

T1 sequence (P02786 whole entry): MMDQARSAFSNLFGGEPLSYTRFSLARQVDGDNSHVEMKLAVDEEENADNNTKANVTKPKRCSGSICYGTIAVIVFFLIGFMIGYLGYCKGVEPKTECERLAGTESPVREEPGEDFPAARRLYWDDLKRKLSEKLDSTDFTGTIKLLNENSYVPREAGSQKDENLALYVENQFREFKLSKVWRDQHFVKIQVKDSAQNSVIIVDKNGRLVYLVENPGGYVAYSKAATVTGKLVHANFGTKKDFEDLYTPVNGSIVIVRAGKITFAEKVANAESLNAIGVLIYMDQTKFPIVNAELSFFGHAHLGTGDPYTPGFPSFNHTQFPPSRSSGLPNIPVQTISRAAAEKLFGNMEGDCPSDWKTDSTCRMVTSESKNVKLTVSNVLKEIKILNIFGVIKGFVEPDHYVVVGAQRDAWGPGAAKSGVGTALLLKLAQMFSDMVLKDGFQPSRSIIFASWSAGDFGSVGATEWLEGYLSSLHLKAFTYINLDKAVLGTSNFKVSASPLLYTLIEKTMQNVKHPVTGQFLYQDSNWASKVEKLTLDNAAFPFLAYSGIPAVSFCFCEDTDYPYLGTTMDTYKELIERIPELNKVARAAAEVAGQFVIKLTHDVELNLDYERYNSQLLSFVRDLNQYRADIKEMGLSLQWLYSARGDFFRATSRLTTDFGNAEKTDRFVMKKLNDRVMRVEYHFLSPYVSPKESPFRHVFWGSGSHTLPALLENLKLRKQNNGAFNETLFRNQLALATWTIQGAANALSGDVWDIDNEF

For `CC[C@H](C)[C@@H]1NC(=O)[C@H](Cc2ccc(OCC(=O)N3CCN(CC(=O)O)CC3)cc2)NC(=O)[C@H](Cc2ccc(O)cc2)NC(=O)[C@H](CC(N)=O)NC(=O)[C@H](Cc2cn(CC(=O)O)c3ccccc23)NC(=O)[C@H](C(C)C)NC(=O)[C@H](Cc2cccc(Cl)c2)N(C)C(=O)[C@H](C(C)C)NC(=O)[C@H](C)NC(=O)CSC[C@@H](C(=O)NCCOCCOCCOCCOCCC(N)=O)NC(=O)[C@H](Cc2ccc(O)cc2)N(C)C(=O)[C@H](Cc2ccncc2)NC(=O)[C@H](CCCCN2CCOCC2)NC(=O)[C@H](CCCCNC(=O)N2CCN(CC(=O)O)CC2)NC(=O)[C@H]([C@@H](C)CC)NC1=O` [compound 33] ({CH2CO}-AV[NMePhe(3-Cl)]V[Trp(1-CH2COOH)]NYY(CH2CON(CH2CH2)2NCH2COOH)IIK([CO-Piperazinyl(4-CH2COOH)])[Nle(6-morpholino)][4Pal][NMeY]C[PEG4]-NH2; thioether N-15), the Kd came out at 8.5 nM in assay [1] and 22.1 nM in assay [2].
Turning to `CC[C@H](C)[C@@H]1NC(=O)[C@H](Cc2ccc(OCC(=O)N3CCN(CC(=O)O)CC3)cc2)NC(=O)[C@H](Cc2ccc(O)cc2)NC(=O)[C@H](CC(N)=O)NC(=O)[C@H](Cc2cn(CC(=O)O)c3ccccc23)NC(=O)[C@H](C(C)C)NC(=O)[C@H](Cc2cccc(Cl)c2)N(C)C(=O)[C@H](C(C)C)NC(=O)[C@H](C)NC(=O)CSC[C@@H](C(=O)NCCOCCOCCOCCOCCC(N)=O)NC(=O)[C@H](Cc2ccc(O)cc2)N(C)C(=O)[C@H](Cc2ccncc2)NC(=O)[C@H](CCCNC(=N)N)NC(=O)[C@H](CCCCNC(=O)N2CCN(CC(=O)O)CC2)NC(=O)[C@H]([C@@H](C)CC)NC1=O` [compound 34], the dissociation constant (Kd) in assay [1] worked out at 5.22 nM; in assay [2], 14.9 nM.
For `CC[C@H](C)[C@@H]1NC(=O)[C@H](Cc2ccc(OCC(=O)N3CCN(CC(=O)O)CC3)cc2)NC(=O)[C@H](Cc2ccc(O)cc2)NC(=O)[C@H](CC(N)=O)NC(=O)[C@H](Cc2cn(CC(=O)O)c3ccccc23)NC(=O)[C@H](C(C)C)NC(=O)[C@H](Cc2cccc(Cl)c2)N(C)C(=O)[C@H](C(C)C)NC(=O)[C@H](C)NC(=O)CSC[C@@H](C(=O)NCCOCCOCCOCCOCCC(N)=O)NC(=O)[C@H](Cc2ccc(O)cc2)N(C)C(=O)[C@H](Cc2cccc(C(=O)O)c2)NC(=O)[C@H](CCCCN2CCOCC2)NC(=O)[C@H](CCC(N)=O)NC(=O)[C@H]([C@@H](C)CC)NC1=O` [compound 35] ({CH2CO}-AV[NMePhe(3-Cl)]V[Trp(1-CH2COOH)]NYY(CH2CON(CH2CH2)2NCH2COOH)IIQ[Nle(6-morpholino)][Phe(3-COOH)][NMeY]C[PEG4]-NH2; thioether N-15), the results for the Kd in assay [1] and in assay [2] were 1.74 nM and 37 nM, respectively.
With `CC[C@H](C)[C@@H]1NC(=O)[C@H](Cc2ccc(OCC(=O)N3CCN(CC(=O)O)CC3)cc2)NC(=O)[C@H](Cc2ccc(O)cc2)NC(=O)[C@H](CC(N)=O)NC(=O)[C@H](Cc2cn(CC(=O)O)c3ccccc23)NC(=O)[C@H](C(C)C)NC(=O)[C@H](Cc2cccc(Cl)c2)N(C)C(=O)[C@H](C(C)C)NC(=O)[C@H](C)NC(=O)CSC[C@@H](C(=O)NCCOCCOCCOCCOCCC(N)=O)NC(=O)[C@H](Cc2ccc(O)cc2)N(C)C(=O)[C@H](Cc2cccc(C(=O)O)c2)NC(=O)[C@H](CCCNC(=N)N)NC(=O)[C@H](CCC(N)=O)NC(=O)[C@H]([C@@H](C)CC)NC1=O` [compound 36], the values for the Kd in assay [1] and in assay [2] were 2.47 nM and 44 nM, respectively.
For the compound `CC[C@H](C)[C@@H]1NC(=O)[C@H](Cc2ccc(OCC(=O)N3CCN(CC(=O)O)CC3)cc2)NC(=O)[C@H](Cc2ccc(O)cc2)NC(=O)[C@H](CC(N)=O)NC(=O)[C@H](Cc2cn(CC(=O)O)c3ccccc23)NC(=O)[C@H](C(C)C)NC(=O)[C@H](Cc2cccc(Cl)c2)N(C)C(=O)[C@H](C(C)C)NC(=O)[C@H](C)NC(=O)CSC[C@@H](C(=O)NCCOCCOCCOCCOCCC(N)=O)NC(=O)[C@H](Cc2ccc(O)cc2)N(C)C(=O)[C@H](Cc2ccncc2)NC(=O)[C@H](CCCCN2CCOCC2)NC(=O)[C@H](CCC(=O)NC[C@H](O)[C@@H](O)[C@H](O)[C@H](O)CO)NC(=O)[C@H]([C@@H](C)CC)NC1=O` [compound 40], the Kd is 43.8 nM in assay [1] and 42.6 nM in assay [2].
As for `CC[C@H](C)[C@@H]1NC(=O)[C@H](Cc2ccc(OCCNC(=O)N3CCN(CC(=O)O)CC3)cc2)NC(=O)[C@H](Cc2ccc(O)cc2)NC(=O)[C@H](CC(N)=O)NC(=O)[C@H](Cc2cn(CC(=O)O)c3ccccc23)NC(=O)[C@H](C(C)C)NC(=O)[C@H](Cc2cccc(Cl)c2)N(C)C(=O)[C@H](C(C)C)NC(=O)[C@H](C)NC(=O)CSC[C@@H](C(=O)NCCOCCOCCOCCOCCC(N)=O)NC(=O)[C@H](Cc2ccc(O)cc2)N(C)C(=O)[C@H](Cc2ccncc2)NC(=O)[C@H](CCCCN2CCOCC2)NC(=O)[C@H](CCC(=O)NCCOCCOCCOCCOCCOCCOCCOCCOC)NC(=O)[C@H]([C@@H](C)CC)NC1=O` [compound 41], the Kd was 14.5 nM in assay [1] and 91.4 nM in assay [2].
In the same order, the values of `CC[C@H](C)[C@@H]1NC(=O)[C@H](Cc2ccc(OCC(=O)N3CCN(CC(=O)O)CC3)cc2)NC(=O)[C@H](Cc2ccc(O)cc2)NC(=O)[C@H](CC(N)=O)NC(=O)[C@H](Cc2c[nH]c3ncccc23)NC(=O)[C@H](C(C)C)NC(=O)[C@H](Cc2cccc(Cl)c2)N(C)C(=O)[C@H](C(C)C)NC(=O)[C@H](C)NC(=O)CSC[C@@H](C(=O)NCCOCCOCCOCCOCCC(N)=O)NC(=O)[C@H](Cc2ccc(O)cc2)N(C)C(=O)[C@H](Cc2cccc(C(=O)O)c2)NC(=O)[C@H](CCCNC(=N)N)NC(=O)[C@H](CCC(=O)NCCOCCOCCOCCOCCOCCOCCOCCOC)NC(=O)[C@H]([C@@H](C)CC)NC1=O` [compound 42] are 5.11 nM and 34.4 nM.
In the same order, the values of `CCC(CC)[C@@H]1NC(=O)[C@H](Cc2ccc(OCC(=O)O)cc2)NC(=O)[C@H](Cc2ccc(N)nc2)NC(=O)[C@H](CC(N)=O)NC(=O)[C@H](Cc2c[nH]c3ncccc23)NC(=O)[C@H](C(C)C)NC(=O)[C@H](Cc2cccc(Cl)c2)N(C)C(=O)[C@H](C(C)C)NC(=O)[C@H](C)NC(=O)CSC[C@@H](C(=O)NCCOCCOCCOCCOCCC(N)=O)NC(=O)[C@H](Cc2ccc(O)cc2)N(C)C(=O)[C@H](Cc2cccc(C(=O)O)c2)NC(=O)[C@H](CCCNC(=N)N)NC(=O)[C@H](CCC(=O)NCCOCCOCCOCCOCCOCCOCCOCCOC)NC(=O)[C@H]([C@@H](C)CC)NC1=O` [compound 43] ({CH2CO}-AV[NMePhe(3-Cl)]V[Trp(7-aza)]N[3Pal(6-NH2)]Y(Carboxymethyl)[Nva(3-Et)]IE(NH(CH2CH2O)8Me)R[Phe(3-COOH)][NMeY]C[PEG4]-NH2; thioether N-15) are 107 nM and 601 nM.
For `CCC(CC)[C@@H]1NC(=O)[C@H](Cc2ccc(OCC(=O)O)cc2)NC(=O)[C@H](Cc2ccc(N)nc2)NC(=O)[C@H](CC(N)=O)NC(=O)[C@H](Cc2c[nH]c3ncccc23)NC(=O)[C@H](C(C)C)NC(=O)[C@H](Cc2cccc(Cl)c2)N(C)C(=O)[C@H](C(C)C)NC(=O)[C@H](C)NC(=O)CSC[C@@H](C(=O)NCCOCCOCCOCCOCCC(N)=O)NC(=O)[C@H](Cc2ccc(O)cc2)N(C)C(=O)[C@H](Cc2cccc(C(=O)NCCOCCOCCOCCOCCC(=O)O)c2)NC(=O)[C@H](CCCNC(=N)N)NC(=O)[C@H](CCC(N)=O)NC(=O)[C@H]([C@@H](C)CC)NC1=O` [compound 44] ({CH2CO}-AV[NMePhe(3-Cl)]V[Trp(7-aza)]N[3Pal(6-NH2)]Y(Carboxymethyl)[Nva(3-Et)]IQR[X1](PEG4)[NMeY]C[PEG4]-NH2; thioether N-15) the same measures were 36.6 nM and 339 nM.
Take `CCC(CC)[C@@H]1NC(=O)[C@H](Cc2ccc(OCC(=O)O)cc2)NC(=O)[C@H](Cc2ccc(N)nc2)NC(=O)[C@H](CC(N)=O)NC(=O)[C@H](Cc2c[nH]c3ncccc23)NC(=O)[C@H](C(C)C)NC(=O)[C@H](Cc2cccc(Cl)c2)N(C)C(=O)[C@H](C(C)C)NC(=O)[C@H](C)NC(=O)CSC[C@@H](C(=O)NCCOCCOCCOCCOCCC(N)=O)NC(=O)[C@H](Cc2ccc(C(=O)O)cc2)N(C)C(=O)[C@H](Cc2cccc(C(=O)O)c2)NC(=O)[C@H](CCCNC(=N)N)NC(=O)[C@H](CCC(N)=O)NC(=O)[C@H]([C@@H](C)CC)NC1=O` [compound 45] ({CH2CO}-AV[NMePhe(3-Cl)]V[Trp(7-aza)]N[3Pal(6-NH2)]Y(Carboxymethyl)[Nva(3-Et)]IQR[Phe(3-COOH)][NMePhe(4-COOH)]C[PEG4]-NH2; thioether N-15): the figures for the Kd in assay [1] and in assay [2] were 75.5 nM and 869 nM, respectively.
On to `CCC(CC)[C@@H]1NC(=O)[C@H](Cc2ccc(OCC(=O)O)cc2)NC(=O)[C@H](Cc2ccc(N)nc2)NC(=O)[C@H](CC(N)=O)NC(=O)[C@H](Cc2cn(CC(=O)O)c3ccccc23)NC(=O)[C@H](C(C)C)NC(=O)[C@H](Cc2cccc(Cl)c2)N(C)C(=O)[C@H](C(C)C)NC(=O)[C@H](C)NC(=O)CSC[C@@H](C(=O)NCCOCCOCCOCCOCCC(N)=O)NC(=O)[C@H](Cc2ccc(O)cc2)N(C)C(=O)[C@H](Cc2ccncc2)NC(=O)[C@H](CCCCN2CCOCC2)NC(=O)[C@H](CCC(N)=O)NC(=O)[C@H]([C@@H](C)CC)NC1=O` [compound 47] ({CH2CO}-AV[NMePhe(3-Cl)]V[Trp(1-CH2COOH)]N[3Pal(6-NH2)]Y(Carboxymethyl)[Nva(3-Et)]IQ[Nle(6-morpholino)][4Pal][NMeY]C[PEG4]-NH2; thioether N-15), for which the equilibrium dissociation constant (Kd) was determined as 116 nM in assay [1] and 249 nM in assay [2].
As to `CCC(CC)[C@@H]1NC(=O)[C@H](Cc2ccc(OCC(=O)O)cc2)NC(=O)[C@H](Cc2ccc(N)nc2)NC(=O)[C@H](CC(N)=O)NC(=O)[C@H](Cc2cn(CC(=O)O)c3ccccc23)NC(=O)[C@H](C(C)C)NC(=O)[C@H](Cc2cccc(Cl)c2)N(C)C(=O)[C@H](C(C)C)NC(=O)[C@H](C)NC(=O)CSC[C@@H](C(=O)NCCOCCOCCOCCOCCC(N)=O)NC(=O)[C@H](Cc2ccc(O)cc2)N(C)C(=O)[C@H](Cc2ccncc2)NC(=O)[C@H](CCCNC(=N)N)NC(=O)[C@H](CCC(=O)NCCOCCOCCOCCOCCOCCOCCOCCOC)NC(=O)[C@H]([C@@H](C)CC)NC1=O` [compound 48] ({CH2CO}-AV[NMePhe(3-Cl)]V[Trp(1-CH2COOH)]N[3Pal(6-NH2)]Y(Carboxymethyl)[Nva(3-Et)]IE(NH(CH2CH2O)8Me)R[4Pal][NMeY]C[PEG4]-NH2; thioether N-15), the Kd in assay [1] came out at 111 nM; in assay [2], 536 nM.
